Measurements as given in PubChem BioAssay AID1963860 (Molecular Pharmacology Branch, DTP, NCI, 2024).

Tested on: CN0375-F725-PDC KRAS spheroid viability
Experiment: Anticancer human tumor CN0375-F725-PDC patient-derived colon carcinoma cell line growth inhibition [KRAS2]
Details: spheroids with HUVEC and MSC; for IC50: curve of first compound; for viability, T/C: stronger effect = lower value
In short: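 Combination screen of spheroid viability in tumor-cell co-cultures with endothelial (HUVEC) and mesenchymal stem cell stroma. Each agent was tested in half-log dilutions, topping at clinical Cmax or at 10 microM without a known Cmax.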

[1] = second compound 0.1 µM, first compound 0.01 µM
[2] = second compound 0.1 µM, first compound 0.0316 µM
[3] = second compound 0.1 µM, first compound 0.1 µM
[4] = second compound 0.1 µM, first compound 0.316 µM
[5] = second compound 0.1 µM, first compound 1 µM
[6] = second compound 0.1 µM, first compound 3.16 µM
[7] = second compound 0.316 µM, first compound 0.01 µM
[8] = second compound 0.316 µM, first compound 0.0316 µM
[9] = second compound 0.316 µM, first compound 0.1 µM
[10] = second compound 0.316 µM, first compound 0.316 µM
[11] = second compound 0.316 µM, first compound 1 µM
[12] = second compound 0.316 µM, first compound 3.16 µM
[13] = second compound 1 µM, first compound 0.01 µM
[14] = second compound 1 µM, first compound 0.0316 µM
[15] = second compound 1 µM, first compound 0.1 µM
[16] = second compound 1 µM, first compound 0.316 µM
[17] = second compound 1 µM, first compound 1 µM
[18] = second compound 1 µM, first compound 3.16 µM
[19] = second compound 3.16 µM, first compound 0.01 µM
[20] = second compound 3.16 µM, first compound 0.0316 µM
[21] = second compound 3.16 µM, first compound 0.1 µM
[22] = second compound 3.16 µM, first compound 0.316 µM
[23] = second compound 3.16 µM, first compound 1 µM
[24] = second compound 3.16 µM, first compound 3.16 µM
[25] = second compound 10 µM, first compound 0.01 µM
[26] = second compound 10 µM, first compound 0.0316 µM
[27] = second compound 10 µM, first compound 0.1 µM
[28] = second compound 10 µM, first compound 0.316 µM
[29] = second compound 10 µM, first compound 1 µM
[30] = second compound 10 µM, first compound 3.16 µM
[31] = second compound 0.1 µM, first compound 10 µM
[32] = second compound 0.316 µM, first compound 10 µM
[33] = second compound 1 µM, first compound 10 µM
[34] = second compound 3.16 µM, first compound 10 µM
[35] = second compound 10 µM, first compound 10 µM
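Further: spheroids exposed to agents for 7 days.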

SMILES	IC50 (second compound 0.1 µM) [nM]	IC50 (second compound 0.316 µM) [nM]	IC50 (second compound 1 µM) [nM]	IC50 (second compound 3.16 µM) [nM]	IC50 (second compound 10 µM) [nM]	viability, T/C [2] [%]	viability, T/C [3] [%]	viability, T/C [4] [%]	viability, T/C [5] [%]	viability, T/C [8] [%]	viability, T/C [9] [%]	viability, T/C [10] [%]	viability, T/C [11] [%]	viability, T/C [14] [%]	viability, T/C [15] [%]	viability, T/C [16] [%]	viability, T/C [17] [%]	viability, T/C [20] [%]	viability, T/C [21] [%]	viability, T/C [22] [%]	further results
CC1COCCN1c1cc(-c2ccnn2C)c2ccnc(-c3ccn[nH]3)c2n1 (stereo not given) + CNCc1ccccc1-c1csc(C(C)Nc2nc(C)nc3cc(OC)c(OC)cc23)c1	> 3160	3100	127	< 10	< 10	88.5	80.7	76.2	68	89.7	74.1	70	59.4	64.3	44.1	45.1	39	0.28	0.36	0.41	viability, T/C [1]: 97.8%; viability, T/C [6]: 52.1%; viability, T/C [7]: 92%; viability, T/C [12]: 49.5%; viability, T/C [13]: 63.5%; viability, T/C [18]: 23.5%; viability, T/C [19]: 0.32%; viability, T/C [23]: 0.44%; viability, T/C [24]: 0.54%; viability, T/C [25]: 0.45%; viability, T/C [26]: 0.24%; viability, T/C [27]: 0.19%; viability, T/C [28]: 0.24%; viability, T/C [29]: 0.24%; viability, T/C [30]: 0.21%
CCN1CCN(Cc2ccc(Nc3ncc(F)c(-c4cc(F)c5nc(C)n(C(C)C)c5c4)n3)nc2)CC1 + CNCc1ccccc1-c1csc(C(C)Nc2nc(C)nc3cc(OC)c(OC)cc23)c1	> 1000	> 1000	32.8	< 3.16	< 3.16	92.4	89.1	102	86.9	78.7	79.1	81.7	58.9	40.5	51.9	9.53	10.2	0.25	0.28	0.37	viability, T/C (second compound 0.1 µM, first compound 0.00316 µM): 102%; viability, T/C [1]: 91.5%; viability, T/C (second compound 0.316 µM, first compound 0.00316 µM): 92.6%; viability, T/C [7]: 88.8%; viability, T/C (second compound 1 µM, first compound 0.00316 µM): 76%; viability, T/C [13]: 65.7%; viability, T/C (second compound 3.16 µM, first compound 0.00316 µM): 0.86%; viability, T/C [19]: 0.97%; viability, T/C [23]: 0.51%; viability, T/C (second compound 10 µM, first compound 0.00316 µM): 0.33%; viability, T/C [25]: 0.19%; viability, T/C [26]: 0.51%; viability, T/C [27]: 0.3%; viability, T/C [28]: 0.17%; viability, T/C [29]: 0.4%
CCNC(=O)CC1N=C(c2ccc(Cl)cc2)c2cc(OC)ccc2-n2c(C)nnc21 (stereo not given) + CNCc1ccccc1-c1csc(C(C)Nc2nc(C)nc3cc(OC)c(OC)cc23)c1	> 10000	6770	1480	< 31.6	< 31.6	103	89	76.2	75.2	92.5	85.2	77	67.7	57.8	65.7	63.7	52.7	0.58	0.33	0.36	viability, T/C [6]: 67.3%; viability, T/C [31]: 50.9%; viability, T/C [12]: 58.4%; viability, T/C [32]: 45.6%; viability, T/C [18]: 40.9%; viability, T/C [33]: 20.7%; viability, T/C [23]: 0.35%; viability, T/C [24]: 0.39%; viability, T/C [34]: 0.46%; viability, T/C [26]: 0.3%; viability, T/C [27]: 0.29%; viability, T/C [28]: 0.46%; viability, T/C [29]: 0.31%; viability, T/C [30]: 0.71%; viability, T/C [35]: 0.4%
Cn1nccc1Nc1nccc(-c2cc3c(s2)C(C)(C)N(CCN2CCOCC2)C3=O)n1 + CNCc1ccccc1-c1csc(C(C)Nc2nc(C)nc3cc(OC)c(OC)cc23)c1	2790	1180	77.7	< 31.6	< 31.6	98	85.6	71.1	61.9	86.5	80.8	64.7	53	57.4	53	25.3	25.9	0.61	0.29	0.39	viability, T/C [6]: 48.8%; viability, T/C [31]: 37.2%; viability, T/C [12]: 39.4%; viability, T/C [32]: 33.2%; viability, T/C [18]: 7.98%; viability, T/C [33]: 3.51%; viability, T/C [23]: 0.2%; viability, T/C [24]: 0.2%; viability, T/C [34]: 0.21%; viability, T/C [26]: 0.28%; viability, T/C [27]: 0.25%; viability, T/C [28]: 0.17%; viability, T/C [29]: 0.26%; viability, T/C [30]: 1.05%; viability, T/C [35]: 0.49%
